Data on one compound can be found in patent US20230165821A1, “ELAFIBRANOR FOR THE TREATMENT OF PRIMARY SCLEROSING CHOLANGITIS” (Genfit, priority 2020, published 2023).

What all share (assay type): in vivo, human
In data set [1] the test system is alkaline phosphatase (ALP) level. As to the kind of experiment: Phase I clinical trial, assessment of ALP level. The conditions noted are these: for Measure of ALP Day 15 change from the baseline: fasting, n=9, baseline day 1. The source says:
(§1) Patients with clinical PSC have elevated alkaline phosphatase (ALP) and bilirubin levels. […] Some studies underline also elevated levels of bilirubin (Denau, M.R. et al., The Natural History of Primary Sclerosing Cholangitis in 781 Children: A Multicenter, International Collaboration. Hepatology (2017), Vol. 66, N° 2 pp518-527).
(§2) This clinical trial has been performed to assess the tolerability, safety and reduction of different parameters, including alkaline phosphatase of once-a-day administrations of oral doses of elafibranor (ELA) in […]. This was a phase I, single-center, double-blind, placebo-controlled, randomised, ascending multiple-dose study in healthy male volunteers. Doses of 40 mg or 60 mg once-a-day during 14 days were tested.
(§3) Thirty 19-40 years old Caucasian male volunteers were included: 9 for each treatment group and 12 for the placebo group.
(§4) The compound used was ELA, supplied in hard gelatin capsules dosed at 10 mg. Dose per administration was of 40 mg or 60 mg. Administration was repeated once-a-day, with an oral administration around 8 a.m. with 200 mL tap water, in sitting position, in fasting conditions, from day 1 to day 14. Matching placebo was presented as identical capsules.
Alkaline phosphatase level was assessed at baseline (day 1) and day 15.

The subject of the next data set is total bilirubin level. As to the kind of experiment: Phase I clinical trial, assessment of bilirubin level. To be noted: for Measure of total bilirubin Day 15 change from the baseline: fasting, n=9.
Text: as §1, §2, §3, §4

The subject of the next data set is healthy male volunteers. The data set is described as follows: Phase I clinical trial, tolerability and safety. As for the experimental part: as §2, §3, §4
The mark [2] stands for this setting: ELA 40 mg/day oral once-a-day for 14 days.
[3] abbreviates: ELA 60 mg/day oral once-a-day for 14 days.

Entries after “also recorded” stand apart in the source; their conditions may differ.

On to `CSc1ccc(C(=O)C=Cc2cc(C)c(OC(C)(C)C(=O)O)c(C)c2)cc1` [ELA, 2-(2,6-dimethyl-4-{3-[4-(methylsulfanyl)phenyl]-3-oxopropen-1-yl}phenoxy)-2-methylpropanoic acid], for which the “Measure of ALP Day 15 change from the baseline” value is recorded as -8.3 in data set [1] (setting [2]) and -20.7 in data set [1] (setting [3]). For the same compound, the “Alkaline phosphatase levels compared to placebo group” value in data set [1] (both doses (40 mg and 60 mg), once-a-day, 14 days, listed as elafibranor) is “improved alkaline phosphatase levels compared to placebo group; also recorded: decreased mean ALP compared with placebo”. The figures for the “Measure of total bilirubin Day 15 change from the baseline” value with total bilirubin level (setting [2]) and in the data set with total bilirubin level (setting [3]) were -2.07 and -2.46, respectively. The “Total bilirubin levels compared to placebo group” value with total bilirubin level (both doses (40 mg and 60 mg), once-a-day, 14 days) is given as “improved total bilirubin levels compared to placebo group”. The Serious adverse events entry with healthy male volunteers (40 mg or 60 mg once-a-day, 14 days, oral) is reported as “No serious adverse events were reported”. Further, the Clinical tolerance entry in the data set on healthy male volunteers (repeated administration at either dose (40 mg or 60 mg), healthy volunteers) is “good clinical tolerance”.
